Molecules are shown by their SMILES.

Common to all, as to assay type: cell-based
For assay [1], the target named is T1, transcription factor GLP65 (Homo sapiens, UniProt P06401).
T1 construct: expressed in transfected cells; host or cells: human HeLa cells, transient co-transfection
T1 sequence (P06401 679-913 limits assumed): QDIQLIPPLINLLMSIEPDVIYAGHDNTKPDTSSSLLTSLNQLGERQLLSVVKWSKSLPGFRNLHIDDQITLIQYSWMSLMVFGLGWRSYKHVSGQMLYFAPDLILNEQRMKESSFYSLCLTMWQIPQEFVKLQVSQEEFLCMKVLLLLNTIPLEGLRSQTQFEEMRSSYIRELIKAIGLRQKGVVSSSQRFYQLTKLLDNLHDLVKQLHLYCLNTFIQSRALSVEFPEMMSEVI
In words: Molecular circuit Hsp70/GAL4-GLP65 + GAL4-hGH in co-transfected HeLa cells, hGH ELISA. Particulars: 10 nM mifepristone with or without heat treatment 43-44° C. for 30-60 min, assayed two or three days later, FIG. 6C.
Experimental: (§1) To test the molecular circuits outlined in FIG. 6A, human HeLa cells were co-transfected with appropriate amounts of Hsp70/GAL4-GLP65 and GAL4-fLuc or GAL4-hGH using Lipofectamine™ reagent (Life Technologies). For correction of differences in transfection efficiency, a small amount of pRL-CMV expressing a Renilla luciferase was also included in transfection mixtures. One day after transfection, cultures were either left untreated, were administered 10 nM mifepristone, were heat-treated (43-44° C. for 30-60 min), or were administered mifepristone and subjected to heat treatment. Two or three days later, cells were harvested and assayed for firefly luciferase activity using the Dual Luciferase Reporter Assay System (Promega Corp.) or for hGH activity using an ELISA kit distributed by Roche, respectively.

Assay [2] has as its target T2, transcription factor GLP65 (Homo sapiens, UniProt P06401+Q04206).
T2 construct: expressed in transfected cells
Kind of assay: Stable HeLa-CAT line with genomic GAL4-fLuc and Hsp70/GAL4-GLP65-RKC transactivator, firefly luciferase assay. Particulars: stable HeLa-CAT clonal line; mifepristone and/or heat treatment at 43° C.; assayed one day later; FIG. 7.
Experimental: HeLa-CAT cells were cotransfected with GAL4-fLuc and Hsp70/GAL4-GLP65-RKC-neo (4:1 molar ratio), and transformants were selected using 400 μg/ml G418. Clonal lines were isolated. […] In the experiment shown in the Figure, parallel cultures of the cell line were either left untreated, or were heat-treated at 43° C. for the times indicated, exposed to mifepristone at the concentrations indicated, or both heat-treated and provided mifepristone. One day later, cells were harvested and assayed for firefly luciferase activity. […] Note that relative firefly luciferase activities are presented as fractions of the highest activity in the experiment.

For assay [3], the target named is T1, transcription factor GLP65. In words: Molecular circuit Hsp70/GAL4-GLP65 + GAL4-fLuc in co-transfected HeLa cells, firefly luciferase assay. The conditions noted are these: 10 nM mifepristone with or without heat treatment 43-44° C. for 30-60 min, assayed two or three days later, FIG. 6B.
Experimental: as §1
The test system of a further assay is EcR/RXR. Kind of assay: Firefly luciferase reporter assay of the Hsp70/E/GRE combination promoter in transfected EcR-293 cells. Particulars: EcR-293 cells transfected with Hsp70/E/GRE-fLuc; ponasterone A for 1-2 days. The procedure:
To test the Hsp70/E/GRE combination promoter and compare it with the hsp70B and E/GRE promoters, EcR-293 cells were co-transfected using Lipofectamine™ reagent (Life Technologies) with Hsp70/E/GRE-fLuc, Hsp70-fLuc or E/GRE-fLuc and pRL-CMV containing a constitutively expressed Renilla luciferase gene. One day after transfection, parallel cultures were either left untreated or were subjected to a heat treatment at 43-44° C. for 30 min or to ponasterone A (Invitrogen Corp.) for 1-2 days. Cells were harvested (after ponasterone exposure or 6-7 h after heat treatment), and firefly luciferase activities were determined using the Dual Luciferase Reporter System (Promega Corp.). […] EcR-293 cells expressing activatable EcR/RXR were obtained from Invitrogen Corporation and were cultured according to the manufacturer's instructions.

T2 sequence (P06401+Q04206 fused): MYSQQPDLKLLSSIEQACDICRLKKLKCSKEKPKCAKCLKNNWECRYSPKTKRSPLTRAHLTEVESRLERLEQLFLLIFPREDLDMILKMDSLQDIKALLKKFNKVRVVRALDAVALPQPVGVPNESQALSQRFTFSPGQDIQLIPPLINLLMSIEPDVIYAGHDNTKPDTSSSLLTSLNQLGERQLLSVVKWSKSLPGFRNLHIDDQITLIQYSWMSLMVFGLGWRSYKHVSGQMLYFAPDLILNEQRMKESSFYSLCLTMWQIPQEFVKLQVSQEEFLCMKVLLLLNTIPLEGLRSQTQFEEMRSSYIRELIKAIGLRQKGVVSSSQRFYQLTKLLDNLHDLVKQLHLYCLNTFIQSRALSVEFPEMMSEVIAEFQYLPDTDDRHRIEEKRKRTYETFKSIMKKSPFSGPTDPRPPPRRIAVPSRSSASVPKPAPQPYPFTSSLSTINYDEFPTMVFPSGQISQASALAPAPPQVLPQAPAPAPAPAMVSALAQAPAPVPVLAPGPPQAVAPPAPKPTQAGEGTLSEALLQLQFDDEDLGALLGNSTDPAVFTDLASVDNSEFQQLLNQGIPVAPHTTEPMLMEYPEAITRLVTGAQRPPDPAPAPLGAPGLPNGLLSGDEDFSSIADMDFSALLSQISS

For the molecule `CC#C[C@]1(O)CC[C@H]2[C@@H]3CCC4=CC(=O)CCC4=C3[C@@H](c3ccc(N(C)C)cc3)C[C@@]21C` [mifepristone], the “expression of hGH gene (relative hGH activity)” value in assay [1] is “essentially silent, except when the cells containing the respective gene switches were stressed (heat treatment) as well as were administered mifepristone”. Also, the “firefly luciferase activity of genomic luciferase gene” value in assay [2] is “Elevated levels of luciferase activity were only measured in cells that were both administered mifepristone and had been subjected to heat treatment”. For the same molecule, the “expression of fLuc gene (relative firefly luciferase activity)” value in assay [3] is on record as “essentially silent, except when the cells containing the respective gene switches were stressed (heat treatment) as well as were administered mifepristone”.

Take `CC(C)CC[C@@H](O)[C@](C)(O)[C@H]1CC[C@@]2(O)C3=CC(=O)[C@@H]4C[C@@H](O)[C@@H](O)C[C@]4(C)[C@H]3CC[C@]12C` [ponasterone A]: the “firefly luciferase activity (induction of the Hsp70/E/GRE combination promoter)” value in the assay with EcR/RXR is “strongly inducible by heat and ponasterone A”.

The record behind these values is US7279565B2, “Molecular regulatory circuits to achieve sustained activation of genes of interest by a single stress” (priority 1998, dated 2007).
